From article PMC10577379, “Isolation of anticancer bioactive secondary metabolites from the sponge-derived endophytic fungi Penicillium sp. and in-silico computational docking approach” (Frontiers in Microbiology, 2023)
Values after ≈ are worked out from the molar mass of the structure shown. “Also recorded” adds a separate entry of the source. Like-named read-outs stand apart in the source and are kept apart here.

What was measured:
[1] = test system: Staphylococcus aureus (CGMCC 1.230); assay: Antimicrobial assay (MIC); type: cell-based; settings: CGMCC1, 37°C, 24 h, read-out: MIC S. aureus
[2] = test system: Escherichia coli (CGMCC 1.2385); assay: Antimicrobial assay (MIC); type: cell-based; settings: CGMCC1, 37°C, 24 h
A549 = assay: Cytotoxicity, Cell Counting Kit (CCK-8); type: cell-based; settings: Homo sapiens, CCK-8, mean ± SD, n = 3, unit from b62 and Table S1 title (there headed MIC)
Protocol: (§1) Cytotoxicity was assessed using the Cell Counting Kit (CCK-8) (Dojindo, Japan) method adopted by Wang et al. ([2015a]). Cancer cell lines used in this study included K562, MCF-7, A549, HuH-7, H1975, HeLa, HL7702, DU145, HL60, MOLT-4. Additionally, a normal cell line, MCF10A, was included. All cell lines were procured from Shanghai Cell Bank, Chinese Academy of Sciences. Cells were routinely grown and maintained in RPMI or DMEM media with 10% Fetal Bovine Serum and 1% penicillin/streptomycin. Various concentrations of seven isolated compounds from Penicillium sp. were dissolved in 100% DMSO with a maximum concentration of 200 μg/mL and serially diluted to a final 0.1% DMSO concentration to treat cells for […]. Taxol was used as a positive control, and DMSO was used as a negative control. Cytotoxicity screening assay experiments were conducted in triplicate to obtain the standard error ± mean value. The percentage of cytotoxicity (IC50) alongside the selectivity index was then calculated using the formula:
(§2) IC50=(absorbance of the cell without treatment -absorbance of cells with treatment/ absorbance of the cell without treatment)× 100
(§3) Selective index (SI)=CC50value for normal cells/IC50for cancer cells

DU145 = assay: Cytotoxicity, Cell Counting Kit (CCK-8); type: cell-based; settings: Homo sapiens, DU-145; CCK-8, mean ± SD, n = 3; unit from b62 and Table S1 title (there headed MIC)
Protocol: as §1, §2, §3

H1975 = assay: Cytotoxicity, Cell Counting Kit (CCK-8); type: cell-based; settings: Homo sapiens, NCI-H1975; CCK-8, mean ± SD, n = 3; unit from b62 and Table S1 title (there headed MIC)
Protocol: as §1, §2, §3

HL7702 = assay: Cytotoxicity, Cell Counting Kit (CCK-8); type: cell-based; settings: Homo sapiens, L02; CCK-8, mean ± SD, n = 3; unit from b62 and Table S1 title (there headed MIC)
Protocol: as §1, §2, §3

HeLa = assay: Cytotoxicity, Cell Counting Kit (CCK-8); type: cell-based; settings: Homo sapiens, CCK-8, mean ± SD, n = 3, unit from b62 and Table S1 title (there headed MIC)
Protocol: as §1, §2, §3

Huh-7 = assay: Cytotoxicity, Cell Counting Kit (CCK-8); type: cell-based; settings: Homo sapiens, CCK-8, mean ± SD, n = 3, unit from b62 and Table S1 title (there headed MIC)
Protocol: as §1, §2, §3

K562 = assay: Cytotoxicity, Cell Counting Kit (CCK-8); type: cell-based; settings: Homo sapiens, CCK-8, mean ± SD, n = 3, unit from b62 and Table S1 title (there headed MIC)
Protocol: as §1, §2, §3

MCF-7 = assay: Cytotoxicity, Cell Counting Kit (CCK-8); type: cell-based; settings: Homo sapiens, MCF7; CCK-8, mean ± SD, n = 3; unit from b62 and Table S1 title (there headed MIC)
Protocol: as §1, §2, §3

MOLT-4 = assay: Cytotoxicity, Cell Counting Kit (CCK-8); type: cell-based; settings: Homo sapiens, CCK-8, mean ± SD, n = 3, unit from b62 and Table S1 title (there headed MIC)
Protocol: as §1, §2, §3

HL60 cells = assay: Cytotoxicity, Cell Counting Kit (CCK-8); type: cell-based, human; settings: for IC50: Homo sapiens; for anticancer activity toward HL60 cells: in words
Protocol: as §1, §2, §3

MCF-10A = assay: Cytotoxicity, Cell Counting Kit (CCK-8), normal cell line; type: cell-based; settings: Homo sapiens, CCK-8, n = 3, unit from Table S1 title
Protocol: as §1, §2, §3

cancer cell lines = assay: Anticancer screening, whole cell line panel; type: cell-based; settings: in-vitro screening, tested cell lines, in words
Protocol: as §1, §2, §3

[3] = test system: Mycobacterium tuberculosis H37Ra (ATCC 25177); assay: Anti-tuberculosis assay (MIC); type: cell-based; settings: M. tuberculosis H37Ra, read-out: Antitubercular activity MIC
Protocol: The H37Ra strain of Mycobacterium tuberculosis (ATCC 25177) purchased from the American Type Culture Collection (ATCC) was used in the anti-TB bioassay. The anti-tuberculosis assay was based on the one used by Wang et al. ([2015b]). INH (Isoniazid) was used as the positive control, and DMSO was used as a negative control. For the minimum inhibitory concentration (MIC) analysis, 100 μl of Mycobacterium suspension was prepared in a 96-well microtiter plate. A total of […] of double serial dilution of various concentrations of 7 isolated compounds (from 0.08 to 20 μg/mL) alongside the positive control isoniazid (1 to 417 μg/mL) was added to the well.

SGC-7901 cell line = test system: SGC-7901 cell line; design: method as in Yang et al., 2009; settings: in words; ref Yang et al., 2009; cited from earlier work
K562 cell lines = test system: K562 cell lines; design: method as in Hong et al., 2007; settings: averufin from Penicillium flavidorsum SHK1-27; ref Hong et al., 2007; cited from earlier work
[4] = HL-60, CCK-8, mean ± SD, n = 3, unit from b62 and Table S1 title (there headed MIC), read-out: IC50 HL60

SMILES	IC50 (A549) [µM]	IC50 (DU145) [µM]	IC50 (H1975) [µM]	IC50 (HL7702) [µM]	IC50 (HeLa) [µM]	IC50 (Huh-7) [µM]	IC50 (K562) [µM]	IC50 (MCF-7) [µM]	IC50 (MOLT-4) [µM]	IC50 (HL60 cells; [4]) [µM]	IC50 (MCF-10A) [µM]	MIC [3] [µM]	other results
O=C(O)c1cn(C2CC2)c2cc(N3CCNCC3)c(F)cc2c1=O [ciprofloxacin, Ciprofloxacin]													MIC [1]: 2.96 µM (≈ 0.981 µg/mL); MIC [2]: 0.19 µM (≈ 0.063 µg/mL)
COc1cc(O)cc2c1C(=O)c1c(O)cc(C)cc1C2=O [Compound 5, methyl emodin]	81.3 ± 0.01	101.4 ± 0.01	43.5 ± 0.01	67.2 ± 0.01	24.9 ± 0.01	25.1 ± 0.01	16.3 ± 0.01	54.3 ± 0.01	13.6 ± 0.01	13.2 ± 0.01	≥ 50	> 50	anticancer activity toward HL60 cells (HL60 cells): moderate activity; anticancer effect against cancer cell lines (cancer cell lines): significant anticancer effect; also recorded: weak anticancer effect; anticancer effect against the SGC-7901 cell line (SGC-7901 cell line): moderate anticancer effect
COC(=O)c1cc(O)cc(OC)c1C(=O)c1c(O)cc(C)cc1O [Compound 3, sulochrin]												> 50	
NNC(=O)c1ccncc1 [INH, Isoniazid, reference compound]												3.98 (≈ 0.546 µg/mL)	
CC(=O)O[C@H]1C(=O)[C@@]2(C)[C@H]([C@H](OC(=O)c3ccccc3)[C@]3(O)C[C@H](OC(=O)[C@H](O)[C@@H](NC(=O)c4ccccc4)c4ccccc4)C(C)=C1C3(C)C)[C@]1(OC(C)=O)CO[C@@H]1C[C@@H]2O [Taxol, reference compound]	0.024 ± 0.01	0.015 ± 0.01	0.014 ± 0.01	0.003	0.003	0.003	0.003	0.002	0.003	0.002	≥ 50		
CCCCC[C@@H](c1ccc(Oc2cc(C)cc(O)c2)cc1)c1c(O)cc2c(c1O)C(=O)c1cc(O)cc(O)c1C2=O [Compound 2, aspergilol-A]												> 50	
CC12CCCC(O1)c1c(cc3c(c1O)C(=O)c1c(O)cc(O)cc1C3=O)O2 (stereo not drawn) [Compound 1, averufin]	76.1 ± 0.01	91.2 ± 0.01	8.64 ± 0.01	3.57 ± 0.01	8.11 ± 0.01	3.13 ± 0.01	17.4 ± 0.01	6.71 ± 0.01	5.77 ± 0.01	1	≥ 50	> 50	IC50 (HL60 cells; HL-60, read-out: IC50 concentration, HL60 cell lines): 1 µM; anticancer activity toward HL60 cells (HL60 cells): strong anticancer activity; anticancer effect against cancer cell lines (cancer cell lines): significant anticancer effect; MIC, antitumor activity toward K562 cell lines (K562 cell lines): 72.4 µM (≈ 26.7 µg/mL)
Cc1cc(O)cc(Oc2cc(C)cc(O)c2)c1 [Compound 7, diorcinol]												> 50	
